Here are results for twelve compounds from US7307099B2, “4-(1-(sulfonyl)-1h-indol-2-yl)-4-(hydroxy)-cyclohexa-2,5-dienone compounds and analogs thereof as therapeutic agents” (Cancer Research Technology Limited, priority 2002, dated 2007).

Read-outs that look alike come from different tables or passages of the source.

Data set [1] can be described thus: Maximum tolerated dose in mice. Conditions: mouse, in vivo, daily (×5) schedule. The protocol: (§1) The in vivo activity of SIQ-01 was studied. The maximum tolerated dose of SIQ-01 in mice is 30 mg/kg on a daily (×5) schedule. Combination treatment of SIQ-01 and cisplatin was active against the HCT116 colon carcinoma tumour when administered to tumour-bearing mice (15 mg SIC-01/kg administered by intraperitoneal injection on days 1-5 and 8-10; 4 mg cisplatin/kg administered subcutaneously on days 1 and 8), and gave a maximum T/C (Test/Control) of 49%. Treatment with cisplatin alone (same regimen) gave a maximum T/C (Test/Control) of 56%.

In the next data set the test system is HCT-116 (colon). Kind of data set: NCI in vitro 60 cell panel, HCT-116. The format is cell-based. Conditions: Homo sapiens, read-out: Most Senstive Cells Lines mean log10 LC50 (converted). The protocol: (§2) Compounds were tested for in vitro activity (48 hour drug exposure) across 60 human cancer cell lines through the National Cancer Institute (NCl) Developmental Therapies Screening Program (Boyd et al., 1995).

The next data set concerns CAKI-1 (renal). Kind of data set: NCI in vitro 60 cell panel, CAKI-1. The format is cell-based. Particulars: Homo sapiens, read-out: Most Senstive Cells Lines mean log10 LC50 (converted). The protocol:
as §2

Data set [2] concerns HCT116 colon carcinoma tumour. The experiment in a line: HCT116 colon carcinoma tumour in tumour-bearing mice. In kind it is in vivo. The protocol:
as §1

The test system of a further data set is HT29 colon carcinoma. The experiment in a line: Growth inhibitory assay (MTT, 72 hour exposure), HT29. The format is cell-based. Particulars: Homo sapiens, HT 29, MTT. The protocol: (§3) Compounds were prepared as 10 mM top stocks, dissolved in DMSO, and stored at 4° C., protected from light, for a maximum period of 4 weeks. Human derived cell lines (HCT 116, HT29 colon carcinoma) were routinely cultivated at 37° C. in an atmosphere of 5% CO2 in RPMI 1640 medium supplemented with 2 mM L-glutamine and 10% fetal calf serum and subcultured twice weekly to maintain continuous logarithmic growth. Cells were seeded into 96-well microtiter plates at a density of 5×10^3 per well and allowed 24 hours to adhere before drugs were introduced (final concentration 0.1 nM-100 μM, n=8). Serial drug dilutions were prepared in medium immediately prior to each assay. At the time of drug addition and following 72 hour exposure, MTT was added to each well (final concentration 400 µg/mL). Incubation at 37° C. for 4 hr allowed reduction of MTT by mitochondrial dehydrogenase to an insoluble formazan product. Well contents were aspirated and formazan solubilized by addition of DMSO:glycine buffer (pH 10.5) (4:1). Absorbance was measured using an Anthos Labtec systems plate reader at 550 nm, and used as a measure of cell viability; thus cell growth or drug toxicity was determined.

Data set [3] relates to 60 human cancer cell lines. The experiment in a line: NCI in vitro 60 cell panel (48 hour drug exposure). The format is cell-based. Conditions: for LC50: read-out: Mean log10 LC50 (converted). The protocol: as §2
The subject of a further data set is HCT 116 colon carcinoma. Kind of data set: Growth inhibitory assay (MTT, 72 hour exposure), HCT 116. In kind it is cell-based. Conditions: Homo sapiens, HCT 116, MTT. The protocol: as §3
A further data set relates to LOX IMVI (melanoma). The experiment in a line: NCI in vitro 60 cell panel, LOX IMVI. The format is cell-based. Conditions: Homo sapiens, read-out: Most Senstive Cells Lines mean log10 LC50 (converted). The protocol:
as §2

The next data set concerns ACHN (renal). The experiment in a line: NCI in vitro 60 cell panel, ACHN. In kind it is cell-based. Particulars: Homo sapiens, read-out: Most Senstive Cells Lines mean log10 LC50 (converted). The protocol: as §2
Data set [4] has as its target T1, Thioredoxin/Thioredoxin Reductase (Tx/TR) (Homo sapiens, UniProt P10599).
T1 construct: was purified from human placenta as previously described; made in house; host or cells: hTrx: Escherichia coli; TR: purified from human placenta tissue
T1 sequence (P10599 2-105 limits assumed): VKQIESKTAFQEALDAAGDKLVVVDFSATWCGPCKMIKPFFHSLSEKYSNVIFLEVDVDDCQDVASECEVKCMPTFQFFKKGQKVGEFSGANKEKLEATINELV
The experiment in a line: Thioredoxin/thioredoxin reductase-catalysed reduction of insulin. The format is biochemical. Particulars: 30 min at 37° C. The protocol:
Assays were performed using methods analogous to those described in Kirkpatrick et al., 1999 and Kunkel et al., 1997.
[…] (specific activity 43.6 μmol NADPH reduced/min/mg protein at 21° C.) was purified from human placenta as previously described (Oblong et al., 1993). Recombinant hTrx was expressed in Escherichia coli and purified as previously described (Gasdaska et al., 1994). The Trx and TR were stored at −20° C. with 5 mM dithiothreitol (DTT) which was removed before use with a desalting column (PDIO, Pharmacla, Uppsala, Sweden).
Microtitre plate colorimetric assays, based on the increase in absorbance at 405 nm which occurs as dithionitrobenzoic acid (DTNB) is reduced by the enzyme-mediated transfer of reducing equivalents from NADPH, were used to measure TR/Trx-dependent insulin-reduction and TR activity (see, e.g., Kunkel et al., 1997).
Thioredoxin reductase/thioredox […] insulin reducing activity was measured in an incubation with a final volume of 60 μL containing 100 mM HEPES buffer, pH 7.2, 5 mM EDTA (HE buffer), 1 mM NADPH, 1.0 μM thioredoxin reductase, 0.8 μM thioredoxin, and 2.5 mg/ml bovine insulin in flat-bottom 96-well microtitre plates. […] The reaction was stopped by the addition of 100 μL of 6 M guanidine HCl, 50 mM Tris, pH 8.0, and 10 mM DTNB, and the absorbance measured at 405 nm.

The subject of the next data set is UO-31 (renal). Kind of data set: NCI in vitro 60 cell panel, UO-31. Conditions: Homo sapiens, read-out: Most Senstive Cells Lines mean log10 LC50 (converted). The format is cell-based. The protocol:
as §2

The subject of the next data set is U251 (CNS cancer). The experiment in a line: NCI in vitro 60 cell panel, U251. Conditions: Homo sapiens, U-251, read-out: Most Senstive Cells Lines mean log10 LC50 (converted). The format is cell-based. The protocol: as §2
In another data set the test system is RXF 393 (renal). Kind of data set: NCI in vitro 60 cell panel, RXF 393. Particulars: Homo sapiens, read-out: Most Senstive Cells Lines mean log10 LC50 (converted). The format is cell-based. The protocol:
as §2

For data set [5] the following is noted: in fetal calf serum; cited from earlier work.
[6] abbreviates: 60 cell, as in Table 3, read-out: Mean GI50.
Setting [7] is: mean across 60 cell lines, 48 hour drug exposure.
[8] abbreviates: mean across 60 cell lines, 48 hour drug exposure, read-out: mean log10 GI50 (converted).

For orientation: MTD means the largest dose that counted as tolerated. In general, IC50 refers to the midpoint of a concentration-inhibition curve. A lower IC50 goes with higher potency. A word on the GI50: it is the concentration at which growth is held to half of that of the control. By LC50 is commonly meant the concentration lethal to half of the exposed cells or organisms. What is called half-life is the time needed for the level to fall by half in the phase considered.

On to `O=C1C=CC(O)(c2cc3ccccc3n2S(=O)(=O)c2ccccc2)C=C1` [SIQ-01, 4-(1-benzenesulfonyl-1H-indol-2-yl)-4-hydroxy-cyclohexa-2,5-dienone], for which the MTD at 5 days in data set [1] is 30 mg/kg. Besides, the CC50 was 33.1 nM in the data set on HCT-116 (colon) and 52.5 nM in the data set on CAKI-1 (renal). Further, the “maximum T/C (Test/Control)” value in data set [2] (combination with cisplatin: 15 mg/kg i.p. days 1-5 and 8-10, 4 mg cisplatin/kg s.c. days 1 and 8) was 49%. Also, the IC50 in the data set with HT29 colon carcinoma worked out at 259 nM; with HCT 116 colon carcinoma it was 86 nM. For the same compound, the results for the concentration for 50% growth inhibition (GI50) in data set [3] (setting [6]) and in data set [3] (setting [8]) were 152 nM and 38.9 nM, respectively. Besides, the LC50 in [3] (setting [7]) is 2950 nM.

Take `COc1ccc2c(c1)cc(C1(O)C=CC(=O)C=C1)n2S(=O)(=O)c1ccccc1` [SIQ-02, 4-(1-benzenesulfonyl-5-methoxy-1H-indol-2-yl)-4-hydroxy-cyclohexa-2,5-dienone]: the LC50 in [3] (setting [7]) is 6170 nM. The GI50 in data set [3] (setting [8]) is 135 nM. Besides, the CC50 is 468 nM in the data set with LOX IMVI (melanoma) and 447 nM with ACHN (renal).

`O=C1C=CC(O)(c2cc3cc(F)ccc3n2S(=O)(=O)c2ccccc2)C=C1` [SIQ-03, 4-(1-benzenesulfonyl-5-fluoro-1H-indol-2-yl)-4-hydroxy-cyclohexa-2,5-dienone]: the CC50 with HCT-116 (colon) is 50.1 nM; in the data set on LOX IMVI (melanoma) it was 63.1 nM. Besides, the IC50 amounted to 347 nM in the data set on HT29 colon carcinoma and 68 nM in the data set on HCT 116 colon carcinoma. Also, the GI50 in [3] (setting [6]) was 527 nM; in [3] (setting [8]), 66.1 nM. The median lethal concentration (LC50) in data set [3] (setting [7]) is 3240 nM.

Consider `Cc1ccc(S(=O)(=O)n2c(C3(O)C=CC(=O)C=C3)cc3ccccc32)cc1` [SIQ-04], for which the CC50 is 47.9 nM with HCT-116 (colon) and 234 nM in the data set on LOX IMVI (melanoma). The figures for the IC50 (in the data set with HT29 colon carcinoma; in data set [4]; in the data set on HCT 116 colon carcinoma) were 206 nM, under 100000 nM and 36 nM, respectively. Further, the GI50 in [3] (setting [6]) is under 100 nM; in data set [3] (setting [8]) it was 112 nM. Besides, the LC50 in data set [3] (setting [7]) was 7240 nM.

In the case of `COc1ccc(S(=O)(=O)n2c(C3(O)C=CC(=O)C=C3)cc3ccccc32)cc1` [SIQ-05], the results for the CC50 in the data set on HCT-116 (colon) and with LOX IMVI (melanoma) were 112 nM and 380 nM, respectively. Moreover, the IC50 in the data set on HT29 colon carcinoma came out at 420 nM; in the data set on HCT 116 colon carcinoma, 203 nM. In addition, the LC50 in data set [3] (setting [7]) is 6310 nM. The GI50 in data set [3] (setting [8]) is 162 nM.

As to `O=C1C=CC(O)(c2cc3ccccc3n2S(=O)(=O)c2ccc(F)cc2)C=C1` [SIQ-06, 4-[1-(4-fluoro-benzenesulfonyl)-1H-indol-2-yl]-4-hydroxy-cyclohexa-2,5-dienone], the CC50 in the data set on HCT-116 (colon) was 363 nM; with UO-31 (renal), 631 nM. In addition, the LC50 in [3] (setting [7]) was 7760 nM. In addition, the GI50 in [3] (setting [8]) is 234 nM.

Turning to `O=C1C=CC(O)(c2cc3ccccc3n2S(=O)(=O)c2ccc3ccccc3c2)C=C1` [SIQ-07], the results for the CC50 in the data set on HCT-116 (colon) and in the data set with U251 (CNS cancer) were 372 nM and 513 nM, respectively. Besides, the IC50 in the data set on HT29 colon carcinoma was 274 nM; in the data set with HCT 116 colon carcinoma, 193 nM. The LC50 in data set [3] (setting [7]) is 5620 nM. Further, the GI50 in data set [3] (setting [8]) was 191 nM.

On to `CC(C)c1cc(C(C)C)c(S(=O)(=O)n2c(C3(O)C=CC(=O)C=C3)cc3ccccc32)c(C(C)C)c1` [SIQ-09], for which the CC50 in the data set on HCT-116 (colon) is 550 nM; with RXF 393 (renal), 776 nM. The LC50 in [3] (setting [7]) is 11200 nM. In addition, the GI50 in data set [3] (setting [8]) is 427 nM.

Consider `O=C1C=CC(O)(c2cc3ccccc3n2S(=O)(=O)c2ccccc2)c2ccccc21` (stereo not drawn) [SIQ-10, 4-(1-benzenesulfonyl-1H-indol-2-yl)-4-hydroxy4H-naphthalen-1-one], for which the CC50 in the data set on HCT-116 (colon) is 794 nM; with LOX IMVI (melanoma) it was 776 nM. Also, the IC50 turned out to be 444 nM with HT29 colon carcinoma and 205 nM in the data set on HCT 116 colon carcinoma. In addition, in [3] (setting [7]), the LC50 is 7760 nM. In addition, the GI50 in [3] (setting [8]) was 447 nM.

`Cc1ccc(S(=O)(=O)n2c(C3(O)C=CC(=O)c4ccccc43)cc3ccccc32)cc1` (stereo not drawn) [SIQ-11, 4-hydroxy 4-[1-(toluene-4-sulfonyl)-1H-indol-2-yl]-4H-naphthalen-1-one]: the CC50 is 490 nM in the data set with HCT-116 (colon) and 724 nM in the data set with LOX IMVI (melanoma). Further, the half-inhibitory concentration (IC50) was determined as 391 nM with HT29 colon carcinoma and 155 nM in the data set with HCT 116 colon carcinoma. The results for the GI50 in data set [3] (setting [6]) and in data set [3] (setting [8]) were over 1000 nM and 389 nM, respectively. The LC50 in data set [3] (setting [7]) was 5620 nM.

Turning to `N.N.[Cl][Pt][Cl]` [cisplatin, reference compound], the “maximum T/C (Test/Control)” value in [2] (cisplatin alone, 4 mg/kg s.c. days 1 and 8) is 56%.

As to `O=CN/C=C/c1cc(O)ccc1O` [erbstatin], the half-life in data set [5] is under 30 min.
